Experimental data from paper PMC9044946 (Journal of Virology, 2022).
Counter-ions that a name gives are not always drawn.

Columns and labels:
[1] = orally administered three times a day; cited from earlier work
[2] = system: TMPRSS2-induced production of S2′; format: cell-based; conditions: acceptor cells ACE2 and TMPRSS2, 120 μM
[3] = system: S-mediated cell-to-cell fusion; format: cell-based; conditions: acceptor cells ACE2 plus TMPRSS2, camostat 120 μM

Row | Compound | Effect on COVID-19 symptoms [1] | Effect on enhanced TMPRSS2-induced production of S2′ with WT S [2] | Effect on TMPRSS2-enhanced fusion with μAS1/S2 [3] | Effect on TMPRSS2-reduced fusion with WT S [3]
1 | CN(C)C(=O)COC(=O)Cc1ccc(OC(=O)c2ccc(NC(=N)N)cc2)cc1 [camostat mesylate] | did not ameliorate COVID-19 symptoms |  |  | 
2 | CN(C)C(=O)COC(=O)Cc1ccc(OC(=O)c2ccc(NC(=N)N)cc2)cc1 [camostat] |  | eliminated | largely attenuated | completely restored
